Assay results from ChEMBL document CHEMBL5038625, “Application of the dual-tail approach for the design and synthesis of novel Thiopyrimidine-Benzenesulfonamide hybrids as selective carbonic anhydrase inhibitors” (Eur J Med Chem, 2022).
pIC50, pKi: −log10 of the molar value.

How the values were obtained:
HOP-92 = experiment: Antiproliferative activity against human HOP-92 cells assessed as cell growth inhibition at 10 uM incubated for 24 hrs by sulforhodamine B assay; type: functional; settings: read-out: GI
NCI-H23 = experiment: Antiproliferative activity against human NCI-H23 cells assessed as cell growth inhibition at 10 uM incubated for 24 hrs by sulforhodamine B assay; type: functional; settings: read-out: GI
Carbonic anhydrase 9 = Carbonic anhydrase 9 (Homo sapiens, UniProt Q16790); experiment: Inhibition of human CA9 preincubated for 15 mins by phenol red dye based stopped flow CO2 hydration assay
U-251 = experiment: Antiproliferative activity against human U-251 cells assessed as cell growth inhibition at 10 uM incubated for 24 hrs by sulforhodamine B assay; type: functional; settings: read-out: GI
NCI-H522 = experiment: Antiproliferative activity against human NCI-H522 cells assessed as cell growth inhibition at 10 uM incubated for 24 hrs by sulforhodamine B assay; type: functional; settings: read-out: GI
UACC-62 = experiment: Antiproliferative activity against human UACC-62 cells assessed as cell growth inhibition at 10 uM incubated for 24 hrs by sulforhodamine B assay; type: functional; settings: read-out: GI
T47D = experiment: Antiproliferative activity against human T47D cells assessed as cell growth inhibition at 10 uM incubated for 24 hrs by sulforhodamine B assay; type: functional; settings: read-out: GI
786-0 = experiment: Antiproliferative activity against human 786-0 cells assessed as cell growth inhibition at 10 uM incubated for 24 hrs by sulforhodamine B assay; type: functional; settings: read-out: GI
TK-10 = experiment: Antiproliferative activity against human TK-10 cells assessed as cell growth inhibition at 10 uM incubated for 24 hrs by sulforhodamine B assay; type: functional; settings: read-out: GI
HCT-116 = experiment: Antiproliferative activity against human HCT-116 cells assessed as cell growth inhibition at 10 uM incubated for 24 hrs by sulforhodamine B assay; type: functional; settings: read-out: GI
CCRF-CEM = experiment: Antiproliferative activity against human CCRF-CEM cells assessed as cell growth inhibition at 10 uM incubated for 24 hrs by sulforhodamine B assay; type: functional; settings: read-out: GI
LOX IMVI = experiment: Antiproliferative activity against human LOX IMVI cells assessed as cell growth inhibition at 10 uM incubated for 24 hrs by sulforhodamine B assay; type: functional; settings: read-out: GI
OVCAR-3 = experiment: Antiproliferative activity against human OVCAR-3 cells assessed as cell growth inhibition at 10 uM incubated for 24 hrs by sulforhodamine B assay; type: functional; settings: read-out: GI
MCF7 = experiment: Antiproliferative activity against human MCF7 cells assessed as reduction in cell viability incubated for 24 hrs by sulforhodamine B assay; type: functional, cell-based; settings: MCF7, 24 h
NCI/ADR-RES = experiment: Antiproliferative activity against human NCI-ADR-RES cells assessed as cell growth inhibition at 10 uM incubated for 24 hrs by sulforhodamine B assay; type: functional; settings: read-out: GI
NCI-H460 = experiment: Antiproliferative activity against human NCI-H460 cells assessed as cell growth inhibition at 10 uM incubated for 24 hrs by sulforhodamine B assay; type: functional; settings: read-out: GI
SK-MEL-28 = experiment: Antiproliferative activity against human SK-MEL-28 cells assessed as cell growth inhibition at 10 uM incubated for 24 hrs by sulforhodamine B assay; type: functional; settings: read-out: GI
SNB-75 = experiment: Antiproliferative activity against human SNB-75 cells assessed as cell growth inhibition at 10 uM incubated for 24 hrs by sulforhodamine B assay; type: functional; settings: read-out: GI
MDA-MB-231 = experiment: Antiproliferative activity against human MDA-MB-231 cells assessed as cell growth inhibition at 10 uM incubated for 24 hrs by sulforhodamine B assay; type: functional; settings: read-out: GI
SR = experiment: Antiproliferative activity against human SR cells assessed as cell growth inhibition at 10 uM incubated for 24 hrs by sulforhodamine B assay; type: functional; settings: read-out: GI
SF-539 = experiment: Antiproliferative activity against human SF-539 cells assessed as cell growth inhibition at 10 uM incubated for 24 hrs by sulforhodamine B assay; type: functional; settings: read-out: GI
HT-29 = experiment: Antiproliferative activity against human HT-29 cells assessed as cell growth inhibition at 10 uM incubated for 24 hrs by sulforhodamine B assay; type: functional; settings: read-out: GI
Malme-3M = experiment: Antiproliferative activity against human Malme-3M cells assessed as cell growth inhibition at 10 uM incubated for 24 hrs by sulforhodamine B assay; type: functional; settings: read-out: GI
RXF 393 = experiment: Antiproliferative activity against human RXF 393 cells assessed as cell growth inhibition at 10 uM incubated for 24 hrs by sulforhodamine B assay; type: functional; settings: read-out: GI
HCT-15 = experiment: Antiproliferative activity against human HCT-15 cells assessed as cell growth inhibition at 10 uM incubated for 24 hrs by sulforhodamine B assay; type: functional; settings: read-out: GI
HOP-62 = experiment: Antiproliferative activity against human HOP-62 cells assessed as cell growth inhibition at 10 uM incubated for 24 hrs by sulforhodamine B assay; type: functional; settings: read-out: GI

Question: What does the source list for `Cc1ccc(-c2nc(SCC(=O)c3ccccc3)nc(Nc3ccc(S(N)(=O)=O)cc3)c2C#N)cc1`?
Answer: inhibition of growth at 10 µM (HOP-92): 62.4%; inhibition of growth at 10 µM (NCI-H23): 65.5%; pKi (Carbonic anhydrase 9): 8.13; inhibition of growth at 10 µM (U-251): 52.6%; inhibition of growth at 10 µM (NCI-H522): 12.9%; inhibition of growth at 10 µM (UACC-62): 19.7%; inhibition of growth at 10 µM (T47D): 16.1%; inhibition of growth at 10 µM (786-0): 53.7%; inhibition of growth at 10 µM (TK-10): 32.5%; inhibition of growth at 10 µM (HCT-116): 64.1%; inhibition of growth at 10 µM (CCRF-CEM): 18%; inhibition of growth at 10 µM (LOX IMVI): 84.5%; inhibition of growth at 10 µM (OVCAR-3): 96%; pIC50 (MCF7): < 4.00; inhibition of growth at 10 µM (NCI/ADR-RES): 18.3%; inhibition of growth at 10 µM (NCI-H460): 34.8%; inhibition of growth at 10 µM (SK-MEL-28): 18.9%; inhibition of growth at 10 µM (SNB-75): 20%; inhibition of growth at 10 µM (MDA-MB-231): 67%; inhibition of growth at 10 µM (SR): 43.1%; inhibition of growth at 10 µM (SF-539): 81.7%; inhibition of growth at 10 µM (HT-29): 7.65%; inhibition of growth at 10 µM (Malme-3M): 66.4%; inhibition of growth at 10 µM (RXF 393): 48.2%; inhibition of growth at 10 µM (HCT-15): 27.9%; inhibition of growth at 10 µM (HOP-62): 73.8%
